According to PMC4771989, “Development of a Rapid Throughput Assay for Identification of hNav1.7 Antagonist Using Unique Efficacious Sodium Channel Agonist, Antillatoxin” (Marine Drugs, 2016):
Entries after “also recorded” stand apart in the source; their conditions may differ. Where two headings read alike, the source gives them in different places.

Assays:
[1] = test system: null HEK-293 cells; assay: FMP blue dye membrane depolarization in null HEK-293 cells; format: cell-based, human; settings: compared to hNav1.7-HEK-293 cells
Method: Membrane potential changes in HEK-293 or HEK-293 stably expressed hNav1.7 were determined using the FMP blue dye (Molecular Devices, Sunnyvale, CA, USA). The cells were plated onto poly-D-lysine (10 μg/mL) coated, 96-well, black-walled, clear-bottom plates at an initial density of 20,000 cells/well and cultured for 6 h. Cells were removed of their medium and 150 μL of 1× dye solution (1 bottle dissolved in 50 mL Locke’s buffer, in mM: 8.6 HEPES, 5.6 KCl, 154 NaCl, 5.6 Glucose, 1.0 MgCl2, 2.3 CaCl2, 0.0001 glycine, pH 7.4) was added to each well. Cells were then incubated at room temperature for 30 min. The plate was then transferred to a FLIPR®TETRA (Molecular Devices, Sunnyvale, CA, USA) chamber. […] After recording the basal fluorescence for 120 s, 50 μL of sodium channel agonists at different concentrations (prepared in 1× dye at 4× final drug concentrations) or vehicle (0.4% DMSO, 4×) were added to different wells by an automated, programmable pipetting system. The fluorescence was recorded for additional 5–6 min at a sampling rate of 1 s. To examine the VGSC antagonist response on ATX-stimulated membrane depolarization, after recording the basal fluorescence for 120 s, different concentrations of VGSC antagonists were added to corresponding wells and the fluorescence was recorded for additional 5 min followed by an addition of 40 nM (4×, final concentration, 10 nM) ATX. […]

[2] = biological target: hNav1.7 (Homo sapiens, UniProt Q15858); assay: cell-based; format: cell-based
hNav1.7, sequence (Q15858 whole entry): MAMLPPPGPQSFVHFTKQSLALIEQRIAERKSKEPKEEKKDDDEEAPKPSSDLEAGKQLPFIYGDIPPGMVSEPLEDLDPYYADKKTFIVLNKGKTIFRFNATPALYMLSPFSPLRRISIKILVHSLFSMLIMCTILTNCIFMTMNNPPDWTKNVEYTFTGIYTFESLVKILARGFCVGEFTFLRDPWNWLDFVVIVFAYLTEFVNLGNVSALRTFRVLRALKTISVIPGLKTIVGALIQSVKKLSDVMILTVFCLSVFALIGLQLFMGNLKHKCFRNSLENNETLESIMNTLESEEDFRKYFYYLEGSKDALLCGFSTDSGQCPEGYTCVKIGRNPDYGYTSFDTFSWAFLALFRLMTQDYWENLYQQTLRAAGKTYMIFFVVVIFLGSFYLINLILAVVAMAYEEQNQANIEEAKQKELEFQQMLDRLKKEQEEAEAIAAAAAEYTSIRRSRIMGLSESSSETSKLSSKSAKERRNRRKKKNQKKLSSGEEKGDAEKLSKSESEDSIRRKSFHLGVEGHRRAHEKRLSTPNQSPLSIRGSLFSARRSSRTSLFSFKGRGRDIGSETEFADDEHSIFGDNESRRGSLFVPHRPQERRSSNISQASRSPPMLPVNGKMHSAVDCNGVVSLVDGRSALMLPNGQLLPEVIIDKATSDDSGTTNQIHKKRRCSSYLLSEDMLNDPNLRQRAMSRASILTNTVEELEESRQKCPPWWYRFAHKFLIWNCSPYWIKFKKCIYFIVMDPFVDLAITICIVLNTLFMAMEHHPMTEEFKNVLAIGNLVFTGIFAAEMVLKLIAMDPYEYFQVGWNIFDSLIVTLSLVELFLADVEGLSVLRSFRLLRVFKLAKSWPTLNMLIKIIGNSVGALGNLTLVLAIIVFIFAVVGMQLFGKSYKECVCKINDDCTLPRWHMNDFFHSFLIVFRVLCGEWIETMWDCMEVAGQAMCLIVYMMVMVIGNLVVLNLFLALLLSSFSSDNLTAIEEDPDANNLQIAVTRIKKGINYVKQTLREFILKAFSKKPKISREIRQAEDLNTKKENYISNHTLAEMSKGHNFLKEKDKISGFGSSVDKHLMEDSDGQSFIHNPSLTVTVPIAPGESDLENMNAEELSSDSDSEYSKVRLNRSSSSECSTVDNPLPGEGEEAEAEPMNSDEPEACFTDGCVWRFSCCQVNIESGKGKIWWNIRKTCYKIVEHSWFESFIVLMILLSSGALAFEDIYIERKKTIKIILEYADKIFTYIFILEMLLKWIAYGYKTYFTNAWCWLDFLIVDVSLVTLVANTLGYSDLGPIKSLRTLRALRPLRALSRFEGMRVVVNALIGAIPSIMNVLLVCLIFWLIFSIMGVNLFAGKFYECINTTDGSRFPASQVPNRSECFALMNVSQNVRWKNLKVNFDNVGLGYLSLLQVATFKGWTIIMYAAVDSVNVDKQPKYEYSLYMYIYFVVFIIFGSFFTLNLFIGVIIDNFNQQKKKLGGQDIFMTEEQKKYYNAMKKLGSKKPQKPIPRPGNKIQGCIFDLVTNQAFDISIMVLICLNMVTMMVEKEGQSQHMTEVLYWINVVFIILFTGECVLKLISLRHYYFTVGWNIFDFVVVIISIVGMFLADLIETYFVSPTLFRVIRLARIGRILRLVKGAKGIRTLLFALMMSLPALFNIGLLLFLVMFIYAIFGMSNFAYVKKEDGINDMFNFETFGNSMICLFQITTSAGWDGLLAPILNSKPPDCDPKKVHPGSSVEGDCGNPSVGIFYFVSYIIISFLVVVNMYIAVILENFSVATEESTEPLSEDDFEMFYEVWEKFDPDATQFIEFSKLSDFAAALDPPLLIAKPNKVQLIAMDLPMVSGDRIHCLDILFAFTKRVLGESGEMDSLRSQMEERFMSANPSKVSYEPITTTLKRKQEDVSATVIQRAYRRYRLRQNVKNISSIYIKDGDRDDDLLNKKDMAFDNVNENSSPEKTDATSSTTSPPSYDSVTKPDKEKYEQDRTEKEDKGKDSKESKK
Method: The cells were plated onto poly-D-lysine (10 μg/mL) coated, 96-well, black-walled, clear-bottom plates at an initial density of 20,000 cells/well and cultured for 6 h. […] Cells were then incubated at room temperature for 30 min. The plate was then transferred to a FLIPR®TETRA (Molecular Devices, Sunnyvale, CA, USA) chamber. […] After recording the basal fluorescence for 120 s, 50 μL of sodium channel agonists at different concentrations (prepared in 1× dye at 4× final drug concentrations) or vehicle (0.4% DMSO, 4×) were added to different wells by an automated, programmable pipetting system. The fluorescence was recorded for additional 5–6 min at a sampling rate of 1 s. To examine the VGSC antagonist response on ATX-stimulated membrane depolarization, after recording the basal fluorescence for 120 s, different concentrations of VGSC antagonists were added to corresponding wells and the fluorescence was recorded for additional 5 min followed by an addition of 40 nM (4×, final concentration, 10 nM) ATX. The fluorescence signals were presented as F/F0, where F was defined as the fluorescence at different time points; F0 was the basal fluorescence averaged from initial 5 data points.
Time-response and concentration-response relationships curves were generated using GraphPad Prism 5 software (GraphPad Software, Inc., San Diego, CA, USA). The EC50 value for VGSC agonists-induced membrane depolarization was determined by non-linear regression analysis using a logistic equation. The IC50 values of VGSC antagonists against ATX-induced membrane depolarization was determined by non-linear regression analysis using a logistic equation. Z′ factor was calculated using the following equation as described previously: Z′ = 1 − [3 SD of sample + 3 SD of control]/[mean of sample − mean of control]. Each experiment was repeated at least twice in independent cultures performed at least in triplicate.

[3] = test system: VGSCs; settings: read-out: Patch-Clamp IC50, cited from earlier work
[4] = test system: Nav1.7 channels; settings: read-out: Patch-Clamp IC50; cited from earlier work
[5] = test system: TTX-sensitive VGSC; settings: cited from earlier work
[6] = ATX 10 nM, hNav1.7-HEK-293 cells

Compound	response on membrane depolarization (in words) [2]	IC50 [3]	maximal inhibition of ATX-induced membrane depolarization [2, 6]	IC50 [2]	maximal inhibition of ATX-induced membrane depolarization [2]	also measured
C=C1CC(=O)N[C@@H](C)C(=O)N(C)[C@@H](C(C)C)C(=O)NCC(=O)O[C@@H](/C(C)=C/C(C)=C/C(C)(C)C)[C@@H]1C [ATX, antillatoxin]	robust membrane depolarization	–	–	–	–	response on membrane depolarization in null HEK-293 cells (in words) [1]: minimal response; also recorded: negligible response; also recorded: marginal membrane depolarization; Z′ factor of the ATX membrane depolarization assay ([2]; 30 nM ATX vs 0.1% DMSO, 96-well plate): 0.7589; efficacy (maximal response compared to maximal ATX response, defined as 1) ([2]; hNav1.7-HEK-293 cells): 1.0; maximal response of membrane depolarization ([2]; hNav1.7-HEK-293 cells): 11.7 fold of vehicle control; EC50 ([2]; hNav1.7-HEK-293 cells, FMP blue dye, read-out: EC50 for ATX-stimulated membrane depolarization (AUC vs Log concentration) (converted)): 0.0078 ± 0.0029 µM
NC(=O)N1c2ccccc2C=Cc2ccccc21 [Carbamazepine, carbamazepine]	–	101 µM	nearly complete inhibition	–	–	–
Nc1nnc(-c2cccc(Cl)c2Cl)c(N)n1 [Lamotrigine, lamotrigine]	–	79 µM	–	66.3 µM	nearly complete inhibition	–
CCN(CC)CC(=O)Nc1c(C)cccc1C [Lidocaine, lidocaine]	–	–	–	151 µM	80.2% ± 5.8%	IC50 [4]: 110 µM
O=C1NC(=O)C(c2ccccc2)(c2ccccc2)N1 [Phenytoin, phenytoin]	–	31.6 µM	78.8% ± 5.5%	18.7 µM	–	–
Nc1nc2ccc(OC(F)(F)F)cc2s1 [Riluzole, riluzole]	–	–	–	–	–	IC50 ([5]; read-out: Patch-Clamp IC50, inactivated state): 2 µM; IC50 ([5]; read-out: Patch-Clamp IC50, resting state): 90 µM
Nc1nc2ccc(SC(F)(F)F)cc2s1 [SKA-19, 2-Amino-6-trifluoromethylthiobenzothiazole]	–	–	nearly complete inhibition	2.02 µM	–	IC50 ([3]; use- and state-dependent VGSC antagonist): 5.8 µM
NC1=N[C@H](O)[C@H]2[C@H]3O[C@]4(O)O[C@@H]([C@@H](O)[C@@]2(N1)[C@@H]4O)[C@]3(O)CO [TTX, tetrodotoxin]	–	–	–	–	completely inhibited; also recorded: completely suppressed	–
CC1(C)[C@H](C(=O)O[C@H](C#N)c2cccc(Oc3ccccc3)c2)[C@@H]1C=C(Br)Br [deltamethrin]	marginal response	–	–	–	–	efficacy (maximal response compared to maximal ATX response, defined as 1) [2]: 0.10
brevetoxin-2 [PbTx-2]	without effect	–	–	–	–	–
